Test results as given in ChEMBL document CHEMBL6134862, “Discovery of WEE1 Kinase Inhibitors with Potent Activity against Patient-Derived, Metastatic Colorectal Cancer Organoids” (J Med Chem, 2025).

Key:
[1] = in vivo; details: Swiss outbred, mouse, iv, 3 mg/kg
[2] = mouse, in vivo, po, 10 mg/kg, 24 h
[3] = in vivo; details: Swiss outbred, mouse, po, 10 mg/kg
[4] = in vivo; details: Swiss outbred, mouse, iv, 3 mg/kg; remark: listed apart in the source
[5] = physchem; details: buffer, pH 7.4
[6] = in vivo; details: Swiss outbred, mouse, iv, 3 mg/kg; remark: listed apart in the source

Vd at 24 h [1]: 1.27 L/kg
AUC [2]: 0.067 µM·h
Cmax at 24 h [3]: 26 nM
AUC(0-t) at 24 h [4]: 0.21 µM·h
chromatographic logD [5]: 3.4
clearance at 24 h [6]: 75 mL/min/kg
SMILES: C=CCn1c(=O)c2cnc(Nc3ccc(N4CCN(C)CC4)cc3)nc2n1-c1cccc(C(C)(C)O)n1 [ADAVOSERTIB]
